The record followed here is patent publication US20240051968A1, “METHODS FOR TREATING SPINOCEREBELLAR ATAXIA TYPE 3” (PTC Therapeutics, Inc., priority 2021, published 2024).

Assay [1] deals with Total ATXN3 (tATXN3) protein. In words: Endogenous Total ATXN3 (tATXN3) Protein Assay (MSD immunoassay of cell lysates). The format is cell-based. The note with it: cells incubated with compound 48 h; 7-point concentration curve; MSD detection in cell lysate. In a few lines:
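Cells were plated at 10,000 per well on a 7-point, 3.16-fold compound dilution series in duplicate, with DMSO controls, and incubated 48 h at 37 °C. Lysates were run in an MSD sandwich immunoassay: mouse anti-ATXN3 capture, rabbit anti-ATXN3 secondary and SULFO-TAG anti-rabbit detection, read by electrochemiluminescence.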

A further assay has as its system ATXN3 pre-mRNA. In words: RT-qPCR Assay to Quantify Exon 4 Skipping in ATXN3 pre-mRNA in Cells. The format is cell-based. The note with it: cells incubated with compound 24 h, 7-point concentration curve, GAPDH control. In a few lines:
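Cells (10,000/well) treated 24 h at 37° C with 7-point, 3.16-fold compound dilutions in duplicate against DMSO controls. Lysates analysed by one-step RT-qPCR (40 cycles) for ATXN3 exon 4 skipping; percent skipping per dose fitted to dose-response to interpolate IC50.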

In the case of `Cc1c([C@H](C)[C@H](C)N)sc2c(NCc3ccco3)cc(Cl)nc12` [Cpd 150, 2-[(2R,3S)-3-aminobutan-2-yl]-5-chloro-N-[(furan-2-yl)methyl]-3-methylthieno[3,2-b]pyridin-7-amine], the IC50 (in assay [1]; with ATXN3 pre-mRNA) was no more than 500 nM each time.

In the case of `Cc1c([C@@H](C)[C@H](C)N)sc2c(NCc3ccco3)cc(Cl)nc12` [Cpd 151, 2-[(2S,3S)-3-aminobutan-2-yl]-5-chloro-N-[(furan-2-yl)methyl]-3-methylthieno[3,2-b]pyridin-7-amine], the IC50 (in assay [1]; in the assay with ATXN3 pre-mRNA) was 1000 to 1500 nM throughout.

On to `Cc1c(CCN)sc2c(NCc3ccco3)cc(Cl)nc12` [Cpd 152, 2-(2-aminoethyl)-5-chloro-N-[(furan-2-yl)methyl]-3-methylthieno[3,2-b]pyridin-7-amine], for which, in assay [1], the “IC50 (average), total ATXN3 protein” value is “inactive”. The “IC50, exon 4 skipping in ATXN3 pre-mRNA” value in the assay with ATXN3 pre-mRNA was “inactive”.

On to `C[C@H](N)C(O)c1sc2c(NCc3ccco3)cc(Cl)nc2c1Br` (stereo partly drawn) [Cpd 153, (2S)-2-amino-1-(3-bromo-5-chloro-7-{[(furan-2-yl)methyl]amino}thieno[3,2-b]pyridin-2-yl)propan-1-ol], for which the “IC50 (average), total ATXN3 protein” value in assay [1] was “inactive”. In addition, in the assay on ATXN3 pre-mRNA, the “IC50, exon 4 skipping in ATXN3 pre-mRNA” value is “inactive”.

For the compound `C[C@H](N)C(F)c1sc2c(NCc3ccco3)cc(Cl)nc2c1Br` (stereo partly drawn) [Cpd 154, 2-[(2S)-2-amino-1-fluoropropyl]-3-bromo-5-chloro-N-[(furan-2-yl)methyl]thieno[3,2-b]pyridin-7-amine], the IC50 (in assay [1]; in the assay with ATXN3 pre-mRNA) was no more than 500 nM throughout.

On to `C[C@H](N)C(O)c1sc2c(NCc3cccs3)cc(Cl)nc2c1Br` (stereo partly drawn) [Cpd 155, (2S)-2-amino-1-(3-bromo-5-chloro-7-{[(thiophen-2-yl)methyl]amino}thieno[3,2-b]pyridin-2-yl)propan-1-ol], for which the “IC50 (average), total ATXN3 protein” value in assay [1] is “inactive”. In the assay with ATXN3 pre-mRNA, the “IC50, exon 4 skipping in ATXN3 pre-mRNA” value is “inactive”.

`C[C@H](N)C(F)c1sc2c(NCc3cccs3)cc(Cl)nc2c1Br` (stereo partly drawn) [Cpd 158, 2-[(2S)-2-amino-1-fluoropropyl]-3-bromo-5-chloro-N-[(thiophen-2-yl)methyl]thieno[3,2-b]pyridin-7-amine]: the IC50 (in assay [1]; in the assay on ATXN3 pre-mRNA) was no more than 500 nM each time.

For the compound `C[C@H](N)C(O)c1sc2c(NCc3nccs3)cc(Cl)nc2c1Br` (stereo partly drawn) [Cpd 159, (2S)-2-amino-1-(3-bromo-5-chloro-7-{[(1,3-thiazol-2-yl)methyl]amino}thieno[3,2-b]pyridin-2-yl)propan-1-ol], the “IC50 (average), total ATXN3 protein” value in assay [1] is “inactive”. Besides, in the assay on ATXN3 pre-mRNA, the “IC50, exon 4 skipping in ATXN3 pre-mRNA” value is “inactive”.

With `C[C@H](N)C(F)c1sc2c(NCc3nccs3)cc(Cl)nc2c1Br` (stereo partly drawn) [Cpd 161, 2-[(2S)-2-amino-1-fluoropropyl]-3-bromo-5-chloro-N-[(1,3-thiazol-2-yl)methyl]thieno[3,2-b]pyridin-7-amine], the IC50 in assay [1] was 500 to 1000 nM; in the assay on ATXN3 pre-mRNA, no more than 500 nM.

In the case of `Cc1c(NC[C@H](C)N)sc2c(NCc3cccs3)cc(Cl)nc12` [Cpd 163, N^2-[(2S)-2-aminopropyl]-5-chloro-3-methyl-N^7-[(thiophen-2-yl)methyl]thieno[3,2-b]pyridine-2,7-diamine], the IC50 in assay [1] fell in the range of 1000 to 1500 nM; in the assay on ATXN3 pre-mRNA, 500 to 1000 nM.

`Cc1c(NC[C@@H](C)N)sc2c(NCc3cccs3)cc(Cl)nc12` [Cpd 164, N^2-[(2R)-2-aminopropyl]-5-chloro-3-methyl-N^7-[(thiophen-2-yl)methyl]thieno[3,2-b]pyridine-2,7-diamine]: the IC50 in assay [1] is greater than 2000 nM; in the assay with ATXN3 pre-mRNA it was 2000 to 3000 nM.

In the case of `C[C@@H](O)[C@H](N)Cc1sc2c(NCc3ccco3)cc(Cl)nc2c1Br` [Cpd 165, (2R,3R)-3-amino-4-(3-bromo-5-chloro-7-{[(furan-2-yl)methyl]amino}thieno[3,2-b]pyridin-2-yl)butan-2-ol], the IC50 (in assay [1]; in the assay on ATXN3 pre-mRNA) was no more than 500 nM each time.

On to `C#C[C@H](N)Cc1sc2c(NCc3ccco3)cc(Cl)nc2c1Cl` [Cpd 166, 2-[(2R)-2-aminobut-3-yn-1-yl]-3,5-dichloro-N-[(furan-2-yl)methyl]thieno[3,2-b]pyridin-7-amine], for which the IC50 (in assay [1]; in the assay with ATXN3 pre-mRNA) was no more than 500 nM each time.

Turning to `C[S+]([O-])C[C@H](N)Cc1sc2c(NCc3ccco3)cc(Cl)nc2c1Cl` (stereo partly drawn) [Cpd 167, [(2R)-2-amino-3-(3,5-dichloro-7-{[(furan-2-yl)methyl]amino}thieno[3,2-b]pyridin-2-yl)propyl](methyl)sulfaniumolate], the IC50 (in assay [1]; in the assay on ATXN3 pre-mRNA) was no more than 500 nM each time.
